Test [1] concerns the target EGFR del19/T790M/C797S (Homo sapiens, UniProt P00533, C797S/DEL746-750/T790M). Kind of test: Biochemical EGFR kinase assay (Lance Ultra TR-FRET), triple mutant del19/T790M/C797S. The essentials:
(§1)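 Enzyme reactions lasted 1 hour at room temperature with test compounds between 0.003 and 10 μM, followed by 10 mM EDTA quench.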
(In general: TR-FRET usually uses a lanthanide donor and a delayed reading to cut background.)

Test [2] addresses EGFR L858R/T790M/C797S (Homo sapiens, UniProt P00533, C797S/L858R/T790M). The test is described as follows: Biochemical EGFR kinase assay (Lance Ultra TR-FRET), triple mutant L858R/T790M/C797S. A digest of the protocol: as §1
For test [3], the target named is EGFR del19/C797S (Homo sapiens, UniProt P00533, C797S/DEL746-750). Kind of test: Biochemical EGFR kinase assay (Lance Ultra TR-FRET), double mutant del19/C797S. The essentials: as §1
In test [4] the target is EGFR L858R/C797S (Homo sapiens, UniProt P00533, C797S/L858R). Kind of test: Biochemical EGFR kinase assay (Lance Ultra TR-FRET), double mutant L858R/C797S. The essentials: as §1
The target in test [5] is EGFR wildtype (WT) (Homo sapiens, UniProt P00533). Kind of test: Biochemical EGFR kinase assay (Lance Ultra TR-FRET), wildtype. The essentials:
as §1

Setting [6] is: Km ATP, read-out: IC50 del19/T790M/C797S, Km ATP.
Setting [7] is: Km ATP, read-out: IC50 L858R/T790M/C797S, Km ATP.
The mark [8] stands for this setting: Km ATP, read-out: IC50 del19/C797S, Km ATP.
Setting [9] is: Km ATP, read-out: IC50 L858R/C797S, Km ATP.
[10] abbreviates: Km ATP, read-out: IC50 WT, Km ATP.
Setting [11] is: Km ATP, read-out: IC50 del19/T790M/C797S (nM) Km ATP.
Setting [12] is: Km ATP, read-out: IC50 L858R/T790M/C797S (nM) Km ATP.
Where [13] appears, read: Km ATP, read-out: IC50 del19/C797S (nM) Km ATP.
[14] abbreviates: Km ATP, read-out: IC50 L858R/C797S (nM) Km ATP.
Where [15] appears, read: Km ATP, read-out: IC50 WT (nM) Km ATP.
Setting [16] is: IC50 del19/T790M/C797S (nM) 100 μM ATP, 100 μM ATP.
[17] abbreviates: IC50 L858R/T790M/C797S (nM) 100 μM ATP, 100 μM ATP.
The mark [18] stands for this setting: IC50 del19/C797S (nM) 100 μM ATP, 100 μM ATP.
Where [19] appears, read: IC50 L858R/C797S (nM) 100 μM ATP, 100 μM ATP.
Where [20] appears, read: IC50 WT (nM) 100 μM ATP, 100 μM ATP.

Like-named read-outs stand apart in the source and are kept apart here.

EGFR L858R/T790M/C797S, sequence (P00533 25-1210 T790M/C797S/L858R): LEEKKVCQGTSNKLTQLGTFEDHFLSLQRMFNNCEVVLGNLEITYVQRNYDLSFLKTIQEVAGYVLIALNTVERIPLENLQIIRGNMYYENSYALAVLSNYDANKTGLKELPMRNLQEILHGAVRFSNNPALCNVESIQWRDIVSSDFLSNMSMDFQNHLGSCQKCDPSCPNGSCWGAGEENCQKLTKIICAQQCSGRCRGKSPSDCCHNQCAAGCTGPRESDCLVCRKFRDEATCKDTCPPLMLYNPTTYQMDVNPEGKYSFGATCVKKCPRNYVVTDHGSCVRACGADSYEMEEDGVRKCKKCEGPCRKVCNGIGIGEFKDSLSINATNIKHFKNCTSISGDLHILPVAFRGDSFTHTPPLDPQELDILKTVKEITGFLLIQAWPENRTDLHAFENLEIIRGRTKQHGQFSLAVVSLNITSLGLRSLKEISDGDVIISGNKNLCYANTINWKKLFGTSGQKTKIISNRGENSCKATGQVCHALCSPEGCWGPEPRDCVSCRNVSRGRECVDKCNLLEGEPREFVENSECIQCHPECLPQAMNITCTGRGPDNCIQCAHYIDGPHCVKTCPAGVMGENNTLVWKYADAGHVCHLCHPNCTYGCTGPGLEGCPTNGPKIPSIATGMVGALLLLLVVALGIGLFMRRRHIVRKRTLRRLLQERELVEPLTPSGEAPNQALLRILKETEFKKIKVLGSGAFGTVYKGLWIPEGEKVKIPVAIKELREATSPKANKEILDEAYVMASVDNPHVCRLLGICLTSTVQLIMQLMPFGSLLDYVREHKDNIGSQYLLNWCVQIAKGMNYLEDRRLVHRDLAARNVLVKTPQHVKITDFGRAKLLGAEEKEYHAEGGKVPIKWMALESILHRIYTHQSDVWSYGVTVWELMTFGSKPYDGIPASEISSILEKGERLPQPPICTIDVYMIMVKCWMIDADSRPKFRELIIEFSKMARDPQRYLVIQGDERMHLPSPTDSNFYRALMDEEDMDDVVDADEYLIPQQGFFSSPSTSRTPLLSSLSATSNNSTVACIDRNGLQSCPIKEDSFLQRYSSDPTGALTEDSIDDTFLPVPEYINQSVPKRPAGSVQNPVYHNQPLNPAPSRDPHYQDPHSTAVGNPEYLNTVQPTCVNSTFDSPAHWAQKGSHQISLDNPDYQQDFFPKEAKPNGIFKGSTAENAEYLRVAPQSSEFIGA
EGFR L858R/C797S, sequence (P00533 25-1210 C797S/L858R): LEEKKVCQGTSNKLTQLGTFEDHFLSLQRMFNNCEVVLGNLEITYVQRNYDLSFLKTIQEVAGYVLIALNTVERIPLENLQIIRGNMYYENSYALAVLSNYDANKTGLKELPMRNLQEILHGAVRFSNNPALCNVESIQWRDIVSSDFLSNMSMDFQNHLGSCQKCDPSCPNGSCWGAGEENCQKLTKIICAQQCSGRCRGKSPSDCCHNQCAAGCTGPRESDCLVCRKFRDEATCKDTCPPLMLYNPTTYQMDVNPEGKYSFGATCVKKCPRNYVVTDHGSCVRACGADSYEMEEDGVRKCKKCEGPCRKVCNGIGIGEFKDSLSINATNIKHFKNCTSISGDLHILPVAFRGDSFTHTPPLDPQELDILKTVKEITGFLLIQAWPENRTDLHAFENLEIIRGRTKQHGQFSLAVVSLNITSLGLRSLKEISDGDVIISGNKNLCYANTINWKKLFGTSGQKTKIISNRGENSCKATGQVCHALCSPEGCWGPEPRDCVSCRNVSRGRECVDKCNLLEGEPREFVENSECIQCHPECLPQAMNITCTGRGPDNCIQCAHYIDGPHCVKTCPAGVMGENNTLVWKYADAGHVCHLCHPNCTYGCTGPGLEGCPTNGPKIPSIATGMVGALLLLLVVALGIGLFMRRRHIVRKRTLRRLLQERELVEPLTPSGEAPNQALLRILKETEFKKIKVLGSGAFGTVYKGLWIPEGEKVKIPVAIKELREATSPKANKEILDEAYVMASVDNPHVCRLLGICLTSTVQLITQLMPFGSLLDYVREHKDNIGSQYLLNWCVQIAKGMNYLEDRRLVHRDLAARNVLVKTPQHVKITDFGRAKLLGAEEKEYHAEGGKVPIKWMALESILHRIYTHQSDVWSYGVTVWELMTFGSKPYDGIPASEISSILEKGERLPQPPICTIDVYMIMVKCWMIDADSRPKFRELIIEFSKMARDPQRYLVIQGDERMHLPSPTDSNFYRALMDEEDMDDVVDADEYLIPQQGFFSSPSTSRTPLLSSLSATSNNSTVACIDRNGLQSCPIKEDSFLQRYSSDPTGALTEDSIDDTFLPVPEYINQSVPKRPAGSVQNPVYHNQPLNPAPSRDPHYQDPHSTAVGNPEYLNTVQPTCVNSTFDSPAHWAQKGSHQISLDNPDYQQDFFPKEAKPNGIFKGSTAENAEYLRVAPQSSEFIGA
EGFR del19/T790M/C797S, sequence (P00533 with tags, fused parts or gaps DEL746-750/T790M/C797S): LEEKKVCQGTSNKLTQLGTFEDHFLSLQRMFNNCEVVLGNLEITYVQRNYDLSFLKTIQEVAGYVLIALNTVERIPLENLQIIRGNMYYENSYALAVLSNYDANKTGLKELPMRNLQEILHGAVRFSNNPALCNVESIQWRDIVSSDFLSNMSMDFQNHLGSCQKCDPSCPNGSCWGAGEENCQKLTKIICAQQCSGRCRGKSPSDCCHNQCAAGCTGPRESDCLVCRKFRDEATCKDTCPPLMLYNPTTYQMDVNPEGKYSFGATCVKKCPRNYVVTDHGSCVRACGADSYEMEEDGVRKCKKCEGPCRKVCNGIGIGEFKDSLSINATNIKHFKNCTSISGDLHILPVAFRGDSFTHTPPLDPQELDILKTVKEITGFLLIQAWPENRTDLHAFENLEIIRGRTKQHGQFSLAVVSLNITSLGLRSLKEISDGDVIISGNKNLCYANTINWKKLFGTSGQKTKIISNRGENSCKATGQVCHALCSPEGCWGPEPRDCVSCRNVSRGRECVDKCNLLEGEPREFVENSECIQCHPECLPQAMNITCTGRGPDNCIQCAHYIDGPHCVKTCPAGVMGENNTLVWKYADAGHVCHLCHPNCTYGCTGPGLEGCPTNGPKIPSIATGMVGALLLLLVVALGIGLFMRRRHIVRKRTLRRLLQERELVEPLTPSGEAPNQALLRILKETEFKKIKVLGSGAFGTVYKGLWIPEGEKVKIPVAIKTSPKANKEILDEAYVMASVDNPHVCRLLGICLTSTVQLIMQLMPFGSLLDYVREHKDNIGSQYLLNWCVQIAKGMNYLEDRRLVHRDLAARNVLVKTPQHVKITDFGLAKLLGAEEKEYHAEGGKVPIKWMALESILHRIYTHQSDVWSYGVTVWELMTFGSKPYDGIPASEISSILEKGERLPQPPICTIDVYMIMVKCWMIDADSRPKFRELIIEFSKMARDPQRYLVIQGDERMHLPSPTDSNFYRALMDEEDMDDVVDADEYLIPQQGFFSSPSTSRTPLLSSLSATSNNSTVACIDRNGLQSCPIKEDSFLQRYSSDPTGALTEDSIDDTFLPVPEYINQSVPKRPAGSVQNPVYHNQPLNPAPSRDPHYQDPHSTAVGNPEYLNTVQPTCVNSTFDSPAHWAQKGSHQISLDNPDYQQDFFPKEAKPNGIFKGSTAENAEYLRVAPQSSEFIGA
EGFR wildtype (WT), sequence (P00533 25-1210): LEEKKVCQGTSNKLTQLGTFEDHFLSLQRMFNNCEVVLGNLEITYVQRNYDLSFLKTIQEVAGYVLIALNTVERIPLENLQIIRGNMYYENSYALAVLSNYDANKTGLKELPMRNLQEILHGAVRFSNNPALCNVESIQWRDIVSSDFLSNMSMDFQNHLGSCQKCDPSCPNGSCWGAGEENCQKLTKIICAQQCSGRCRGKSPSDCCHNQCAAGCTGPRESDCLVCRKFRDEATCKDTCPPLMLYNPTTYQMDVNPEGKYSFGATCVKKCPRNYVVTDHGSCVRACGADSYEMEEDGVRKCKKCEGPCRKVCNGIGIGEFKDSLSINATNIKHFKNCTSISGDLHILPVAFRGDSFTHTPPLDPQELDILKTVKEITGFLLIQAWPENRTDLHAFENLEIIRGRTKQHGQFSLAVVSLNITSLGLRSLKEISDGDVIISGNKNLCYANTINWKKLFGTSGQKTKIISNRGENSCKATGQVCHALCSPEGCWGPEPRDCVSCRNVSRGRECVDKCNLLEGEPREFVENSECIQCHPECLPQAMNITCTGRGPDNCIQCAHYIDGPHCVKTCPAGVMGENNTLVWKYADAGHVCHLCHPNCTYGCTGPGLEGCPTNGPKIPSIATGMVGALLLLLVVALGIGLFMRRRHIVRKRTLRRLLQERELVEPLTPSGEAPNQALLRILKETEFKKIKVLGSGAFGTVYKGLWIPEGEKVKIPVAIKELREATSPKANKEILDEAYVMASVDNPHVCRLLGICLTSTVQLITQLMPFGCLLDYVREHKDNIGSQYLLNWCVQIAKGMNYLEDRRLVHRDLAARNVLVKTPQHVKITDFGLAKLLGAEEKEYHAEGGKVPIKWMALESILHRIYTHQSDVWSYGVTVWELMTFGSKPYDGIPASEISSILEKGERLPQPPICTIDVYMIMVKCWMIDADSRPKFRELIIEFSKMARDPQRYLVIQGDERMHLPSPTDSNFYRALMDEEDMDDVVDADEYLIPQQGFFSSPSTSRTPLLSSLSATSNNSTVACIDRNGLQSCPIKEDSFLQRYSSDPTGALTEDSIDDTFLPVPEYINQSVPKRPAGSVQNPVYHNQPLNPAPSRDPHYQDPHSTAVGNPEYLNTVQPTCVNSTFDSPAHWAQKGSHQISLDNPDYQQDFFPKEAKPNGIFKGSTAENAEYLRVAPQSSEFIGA

Take `CC(C)Nc1nc(Nc2ccnc(-c3cnn(S(=O)(=O)C4CC4)c3)c2)ncc1-c1ccn(C(F)F)n1` [Example 363, N^2-(2-(1-(Cyclopropylsulfonyl)-1H-pyrazol-4-yl)pyridin-4-yl)-5-(1-(difluoromethyl)-1H-pyrazol-3-yl)-N^4-isopropylpyrimidine-2,4-diamine]: the IC50 in test [1] (setting [6]) was 3.4 nM; in test [2] (setting [7]), 4.3 nM; in test [3] (setting [8]), 404 nM; in test [4] (setting [9]), 665 nM; in test [5] (setting [10]), 4270 nM.

In the case of `O=S(=O)(C1CC1)n1cc(-c2nccc(Nc3cc(NC4CCCC(F)C4)c(-c4ccn(C(F)F)n4)cn3)n2)cn1` (stereo not shown) [Example 181, N^2-(2-(1-(Cyclopropylsulfonyl)-1H-pyrazol-4-yl)pyrimidin-4-yl)-5-(1-(difluoromethyl)-1H-pyrazol-3-yl)-N^4-(3-fluorocyclohexyl)pyridine-2,4-diamine], the IC50 was 2.1 nM in test [1] (setting [11]); 2.1 nM in test [2] (setting [12]); 6.7 nM in test [3] (setting [13]); 13.2 nM in test [4] (setting [14]); 44.6 nM in test [5] (setting [15]).

As to `Cn1nc(-c2cnc(Nc3ccnc(-c4cnn(CC(F)(F)F)c4)n3)cc2N[C@H]2CC[C@@](C)(O)CC2)cc1C(F)(F)F` [Example 329, (1s,4s)-1-Methyl-4-((5-(1-methyl-5-(trifluoromethyl)-1H-pyrazol-3-yl)-2-((2-(1-(2,2,2-trifluoroethyl)-1H-pyrazol-4-yl)pyrimidin-4-yl)amino)pyridin-4-yl)amino)cyclohexan-1-ol], the IC50 was determined as 6.5 nM in test [1] (setting [16]); 2.5 nM in test [1] (setting [11]); 4.1 nM in test [2] (setting [17]); 1.2 nM in test [2] (setting [12]); 37.1 nM in test [3] (setting [18]); 24.6 nM in test [3] (setting [13]). Further, the IC50 in test [4] (setting [19]) is 1140 nM; in test [4] (setting [14]), 75 nM; in test [5] (setting [20]) it was over 10000 nM; in test [5] (setting [15]), 288 nM.

For `Cn1ccc(-c2cnc(Nc3ccnc(-c4cnn(S(=O)(=O)C5CC5)c4)n3)cc2N[C@H]2CC[C@@H](NCCF)CC2)n1` [Example 43, N^2-(2-(1-(Cyclopropylsulfonyl)-1H-pyrazol-4-yl)pyrimidin-4-yl)-N^4-((1s,4s)-4-((2-fluoroethyl)amino)cyclohexyl)-5-(1-methyl-1H-pyrazol-3-yl)pyridine-2,4-diamine], the IC50 was 0.3 nM in test [1] (setting [16]); 0.2 nM in test [1] (setting [11]); 0.3 nM in test [2] (setting [17]); 0.1 nM in test [2] (setting [12]); 0.7 nM in test [3] (setting [13]); 14.7 nM in test [4] (setting [19]). Besides, the IC50 is 0.4 nM in test [4] (setting [14]), 5240 nM in test [5] (setting [20]) and 4.9 nM in test [5] (setting [15]).

With `O=S(=O)(C1CC1)n1cc(-c2nccc(Nc3cc(NC[C@H]4C[C@H](CO)C4)c(-c4ccn(C(F)F)n4)cn3)n2)cn1` [Example 189, ((1r,3r)-3-(((2-((2-(1-(Cyclopropylsulfonyl)-1H-pyrazol-4-yl)pyrimidin-4-yl)amino)-5-(1-(difluoromethyl)-1H-pyrazol-3-yl)pyridin-4-yl)amino)methyl)cyclobutyl)methanol], the IC50 in test [1] (setting [16]) came to 0.4 nM; in test [1] (setting [11]) it was 0.5 nM; in test [2] (setting [17]), 0.2 nM; in test [2] (setting [12]) it was 0.3 nM; in test [3] (setting [18]), 1.8 nM; in test [3] (setting [13]), 1.2 nM. The IC50 was 27.1 nM in test [4] (setting [19]), 3.1 nM in test [4] (setting [14]), over 10000 nM in test [5] (setting [20]) and 20.1 nM in test [5] (setting [15]).

With `O=S(=O)(C1CC1)n1cc(-c2nccc(Nc3cc(N[C@H]4CC[C@@H](F)CC4)c(-c4ccn(CCC(F)(F)F)n4)cn3)n2)cn1` [Example 306, N^2-(2-(1-(Cyclopropylsulfonyl)-1H-pyrazol-4-yl)pyrimidin-4-yl)-N^4-((1s,4s)-4-fluorocyclohexyl)-5-(1-(3,3,3-trifluoropropyl)-1H-pyrazol-3-yl)pyridine-2,4-diamine], the IC50 in test [1] (setting [11]) was found to be 9.1 nM; in test [2] (setting [12]), 5.9 nM; in test [3] (setting [13]), 171 nM; in test [4] (setting [14]) it was 47.9 nM; in test [5] (setting [15]), 1290 nM.

Take `CS(=O)(=O)N1CCC(c2nccc(Nc3cc(N[C@H]4CC[C@@](C)(O)CC4)c(-c4ccn(C(F)F)n4)cn3)n2)CC1` [Example 158, (1s,4s)-4-((5-(1-(Difluoromethyl)-1H-pyrazol-3-yl)-2-((2-(1-(methylsulfonyl)piperidin-4-yl)pyrimidin-4-yl)amino)pyridin-4-yl)amino)-1-methylcyclohexan-1-ol]: the IC50 in test [1] (setting [11]) was 110 nM; in test [2] (setting [12]), 9.4 nM; in test [3] (setting [13]), 6330 nM; in test [4] (setting [14]), 450 nM; in test [5] (setting [15]), 635 nM.

Consider `C[C@]1(O)CC[C@@H](Nc2cc(Nc3ccnc(-c4cnn(CC(F)F)c4)n3)ncc2-c2ccn(CC(F)F)n2)CC1` [Example 343, (1s,4s)-4-((5-(1-(2,2-Difluoroethyl)-1H-pyrazol-3-yl)-2-((2-(1-(2,2-difluoroethyl)-1H-pyrazol-4-yl)pyrimidin-4-yl)amino)pyridin-4-yl)amino)-1-methylcyclohexan-1-ol], for which the IC50 in test [1] (setting [6]) was 0.1 nM; in test [2] (setting [7]) it was 0.2 nM; in test [3] (setting [8]), 4.7 nM; in test [4] (setting [9]), 0.3 nM; in test [5] (setting [10]), 35.3 nM.

For the compound `Cn1nc(-c2cnc(Nc3ccnc(-c4cnn(S(=O)(=O)C5CC5)c4)n3)cc2N[C@H]2CC[C@@](C)(O)CC2)cc1C(F)(F)F` [Example 252, (1s,4s)-4-((2-((2-(1-(Cyclopropylsulfonyl)-1H-pyrazol-4-yl)pyrimidin-4-yl)amino)-5-(1-methyl-5-(trifluoromethyl)-1H-pyrazol-3-yl)pyridin-4-yl)amino)-1-methylcyclohexan-1-ol], the IC50 is 0.7 nM in test [1] (setting [16]); 0.8 nM in test [2] (setting [12]); 1.2 nM in test [3] (setting [13]); 9.8 nM in test [4] (setting [19]); 4.3 nM in test [4] (setting [14]); over 10000 nM in test [5] (setting [20]). Also, in test [5] (setting [15]), the IC50 was 3 nM.

Regarding `Cn1ccc(-c2cnc(Nc3ccnc(-c4cnn(S(=O)(=O)C5CC5)c4)n3)cc2NC2CCCC(NCC(F)F)C2)n1` (stereo not shown) [Example 224, N^2-(2-(1-(Cyclopropylsulfonyl)-1H-pyrazol-4-yl)pyrimidin-4-yl)-N^4-(3-((2,2-difluoroethyl)amino)cyclohexyl)-5-(1-methyl-1H-pyrazol-3-yl)pyridine-2,4-diamine], the IC50 in test [1] (setting [16]) turned out to be 0.7 nM; in test [1] (setting [11]), 0.5 nM; in test [2] (setting [17]), 0.7 nM; in test [2] (setting [12]) it was 0.3 nM; in test [3] (setting [18]) it was 4.7 nM; in test [3] (setting [13]) it was 3.3 nM. Moreover, the IC50 is 132 nM in test [4] (setting [19]), 6.6 nM in test [4] (setting [14]), over 10000 nM in test [5] (setting [20]) and 37.8 nM in test [5] (setting [15]).

Turning to `O=S(=O)(C1CC1)n1cc(-c2nccc(Nc3cc(NC4CCC(CCO)CC4)c(-c4ccn(C(F)F)n4)cn3)n2)cn1` (stereo not shown) [Example 133, 2-((1r,4r)-4-((2-((2-(1-(Cyclopropylsulfonyl)-1H-pyrazol-4-yl)pyrimidin-4-yl)amino)-5-(1-(difluoromethyl)-1H-pyrazol-3-yl)pyridin-4-yl)amino)cyclohexyl)ethan-1-ol], the IC50 turned out to be 0.5 nM in test [1] (setting [16]); 0.3 nM in test [1] (setting [11]); 3.2 nM in test [2] (setting [17]); 0.1 nM in test [2] (setting [12]); 1.4 nM in test [3] (setting [18]); 0.3 nM in test [3] (setting [13]). Also, the IC50 in test [4] (setting [19]) is 99.3 nM; in test [4] (setting [14]), 1 nM; in test [5] (setting [20]), over 10000 nM; in test [5] (setting [15]) it was 92.1 nM.

Consider `CC(C)(O)Cn1cc(-c2nccc(Nc3cc(N[C@H]4CC[C@@](C)(O)CC4)c(-c4ccn(C(F)F)n4)cn3)n2)cn1` [Example 142, (1s,4s)-4-((5-(1-(Difluoromethyl)-1H-pyrazol-3-yl)-2-((2-(1-(2-hydroxy-2-methylpropyl)-1H-pyrazol-4-yl)pyrimidin-4-yl)amino)pyridin-4-yl)amino)-1-methylcyclohexan-1-ol], for which the IC50 in test [1] (setting [16]) is 17.6 nM; in test [2] (setting [17]), 33.8 nM; in test [3] (setting [18]), 114 nM; in test [4] (setting [19]) it was 37.5 nM; in test [5] (setting [20]), over 10000 nM; in test [5] (setting [15]), 486 nM.

As to `Cn1ccc(-c2cnc(Nc3ccnc(-c4cnn(S(=O)(=O)C5CC5)c4)n3)cc2N[C@H]2CCC[C@H](CO)C2)n1` [Example 233, ((1S,3S)-3-((2-((2-(1-(Cyclopropylsulfonyl)-1H-pyrazol-4-yl)pyrimidin-4-yl)amino)-5-(1-methyl-1H-pyrazol-3-yl)pyridin-4-yl)amino)cyclohexyl)methanol], the IC50 stood at 0.5 nM in test [1] (setting [16]); 0.4 nM in test [1] (setting [11]); 0.4 nM in test [2] (setting [17]); 0.2 nM in test [2] (setting [12]); 1.3 nM in test [3] (setting [18]); 0.5 nM in test [3] (setting [13]). The IC50 was determined as 4.2 nM in test [4] (setting [19]), 0.9 nM in test [4] (setting [14]), 3140 nM in test [5] (setting [20]) and 3.6 nM in test [5] (setting [15]).

These data come from patent US12258327B2, “5-membered heteroaryl-containing aminopyridine compounds as EGFR inhibitors” (YUHAN CORPORATION, priority 2021, dated 2025).
